In patent US8871815B2, “Therapeutic compounds” (Signature Therapeutics, Inc., priority 2007, dated 2014):
Where two headings read alike, the source gives them in different places. Marks after values point to notes of the source that are not given here.

Tests used:
[1] = target: T1, phosphodiesterase 2 (PDE2) (Homo sapiens, UniProt O00408); experiment: Cerep Diversity Profile: enzymes, PDE2; type: biochemical; details: tested at 10 μM; read-out: inhibition of control binding, PDE2
T1 construct: Cerep, Inc
T1 sequence (O00408 whole entry): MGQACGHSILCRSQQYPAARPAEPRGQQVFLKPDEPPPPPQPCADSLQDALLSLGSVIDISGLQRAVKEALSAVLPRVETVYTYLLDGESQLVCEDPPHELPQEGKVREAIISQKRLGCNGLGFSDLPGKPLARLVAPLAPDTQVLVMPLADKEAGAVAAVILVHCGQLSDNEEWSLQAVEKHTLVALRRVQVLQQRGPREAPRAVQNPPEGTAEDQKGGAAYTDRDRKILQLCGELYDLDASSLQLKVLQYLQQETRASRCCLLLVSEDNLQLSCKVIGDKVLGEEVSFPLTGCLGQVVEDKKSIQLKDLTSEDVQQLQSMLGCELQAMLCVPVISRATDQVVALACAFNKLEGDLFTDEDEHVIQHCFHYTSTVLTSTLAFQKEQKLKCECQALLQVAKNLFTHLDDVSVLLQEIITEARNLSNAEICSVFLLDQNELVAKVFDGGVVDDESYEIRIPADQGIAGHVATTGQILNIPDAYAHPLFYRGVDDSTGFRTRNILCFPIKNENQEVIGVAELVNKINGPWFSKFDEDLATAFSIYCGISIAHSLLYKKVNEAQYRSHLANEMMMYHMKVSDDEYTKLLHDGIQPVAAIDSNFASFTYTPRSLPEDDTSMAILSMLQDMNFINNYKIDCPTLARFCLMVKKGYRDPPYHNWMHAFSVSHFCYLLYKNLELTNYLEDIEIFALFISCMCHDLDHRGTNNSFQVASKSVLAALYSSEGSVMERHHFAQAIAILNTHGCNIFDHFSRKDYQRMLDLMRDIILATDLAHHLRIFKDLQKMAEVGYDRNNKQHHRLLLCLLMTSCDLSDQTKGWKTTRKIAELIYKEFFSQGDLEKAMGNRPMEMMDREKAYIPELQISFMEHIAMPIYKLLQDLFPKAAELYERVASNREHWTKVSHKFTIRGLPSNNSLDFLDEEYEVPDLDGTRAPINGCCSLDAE

[2] = test system: alpha2, NMDA, PCP, benzodiazepine or opioid receptors; experiment: Cerep Diversity Profile: other receptors; type: binding; details: tested at 10 μM
[3] = Aqueous phase concentration in lipid emulsion (ultrafiltration, LC/MS/MS); type: physicochemical; details: 1% lipid emulsion formulation
Protocol: The concentration of Compound 1 in the aqueous phase (aqueous phase concentration) of a lipid emulsion formulation was determined.
A one percent (1%) Compound 1 formulation was formulated in accordance with Example 4, Compound 1 being prepared as described in Example 5.

male Sprague-Dawley rats [4] = experiment: Anesthetic effects in rats, bolus IV, Loss of Righting Reflex (LORR); type: in vivo, rat
Protocol: (§1) Also measured was minimum dose to achieve LORR and maximum tolerated dose (MTD).
(§2) The ranges of doses studied were 1.9, 2.3, 3.0, 7.0, 13.7, 14.0 and 15.2 mg/kg for Compound 1 and 3.5, 4.0, 7.0 and 14.0 mg/kg for […].

rats = experiment: Separate rat study, bolus IV, 1% in cremaphor, sleep time; type: in vivo; details: for Sleep Time (duration of anesthesia): 7 mg/kg bolus IV
Beagle dogs [5] = experiment: Hemodynamic effects (blood pressure) in beagle dogs, bolus IV; type: in vivo, dog; details: 4 min after administration
Protocol: The study was a crossover design. […] The MTD was defined as the dose that reduced mean arterial blood pressure (MAP) by 50% or to less than 50 millimeters of mercury (mmHg or mm Hg). All animals received supplemental oxygen and, if needed, ventilatory support after 4 min of apnea.
Hemodynamic data, such as mean arterial pressure (MAP), were recorded at baseline, 1, 2, 4, 8, 15, 20 and 30 min. Compound 1 was administered at 5, 10, 15 and 30 mg/kg to 3, 6, 6 and 3 dogs respectively. […] Data were analyzed with a 2-way ANOVA followed by t-test with Bonferroni correction for multiple comparisons.

mongrel dogs = experiment: Anesthetic and hemodynamic effects in chronically instrumented mongrel dogs, total intravenous anesthesia; type: in vivo, dog; details: IV bolus then stepwise IV infusions 0.25-2.0 mg/kg/min
Protocol: Assessments included hemodynamic performance parameters such as blood pressure, heart rate, and cardiac output as well as clinical chemistry parameters and EEG analysis.
General anesthesia was induced in the dogs by IV administration of 7 mg/kg […], and the dogs were tracheally intubated and mechanically ventilated. General anesthesia was maintained using 2.2% end-tidal sevoflurane in oxygen. A thoracotomy was performed at the fifth left intercostal space, and heparin-filled catheters were placed in the proximal descending thoracic aorta (P50 pressure transducer Gould, Oxnard, Calif.), and in the right and left atria to provide IV access. An ultrasonic transit-time flow probe (T108, Transonic Systems, Ithaca, N.Y.) was placed around the ascending thoracic aorta. A […] Doppler flow probe (Model HDP-20-3.5, Triton Surgical Technologies, San Diego, Calif.) was placed around the left anterior descending coronary artery. Six MHz sonomicrometer crystals (Hartley, Houston, Tex.) were implanted in the subendocardium. A high fidelity micromanometer (P7, Konigsberg Instruments, Pasadena, Calif.) was inserted into the left ventricle. […]
The dogs were fasted overnight. […] EEG was recorded continuously during the experiment. Arterial blood gas and chemistry measures included pH, pO2, sO2, pCO2, tCO2, carbonate, potassium, sodium, and base excess, and were measured immediately following blood draws using a blood gas and chemistry analyzer (ABL-505, Radiometer, Copenhagen). […] Following stabilization, baseline measurements of EEG, hemodynamics, ECG, and blood gases were recorded. Blood samples were drawn for PK and clinical chemistry, and pressure volume loops were generated and data recorded.
Following induction, the dogs were tracheally intubated, and mechanically ventilated using 50% oxygen in nitrogen throughout the subsequent drug infusion and recovery periods. […] MAP was monitored continuously, and dosing was discontinued immediately if MAP decreased below 50 mmHg at any time or if the heart rate increased over 200 beats per minute. […]

in vivo = details: both, pig, in vivo, iv
Protocol: (§3) Experiments were performed on commercial farm-bred swine of either sex (mean weight 33.6 kg). Anesthesia was induced with isoflurane. Intravascular access was obtained from an ear vein. Each pig was intubated and mechanically ventilated. Tissue oxygenation was monitored using continuous pulse oximetry placed on the tongue. Ventilation was monitored using an inspired/expired gas analyzer that measured oxygen, carbon dioxide, and potent inhalation agent concentrations. Ventilator settings were adjusted as needed to maintain steady state.
(§4) ECG was monitored throughout the study. Arterial blood pressure was monitored through the cannulated left femoral artery. MAP, systolic and diastolic arterial pressures and heart rate were collected every 5 seconds. An internal jugular vein was cannulated with a pulmonary artery catheter for thermodilution estimates of cardiac output and blood temperature. Body temperature was maintained at 37° C. Instrumentation for EEG monitoring was accomplished using an adhesive electrode array over the fronto-occipital regions (Aspect Medical. Norwood, Mass., USA).
(§5) Metabolic and hemodynamic parameters for each group were compared at multiple time points using an unpaired two-tailed Student t test. To account for multiple comparisons and maintain the probability of a type I error below 0.05, P values less than 0.025 were considered significant.

pigs [6] = experiment: in vivo; details: pig, in vivo, iv
Protocol: as §3, §4, §5

pigs [7] = experiment: Hemodynamic effects, arterial blood gas and serum chemistry in pigs, IV infusion; type: in vivo, pig; details: IV infusion, pigs (Compound 1 0.384, propofol 0.750 mg/kg/min)
Protocol: Anesthesia was induced with isoflurane. Intravascular access was obtained from an ear vein. Each pig was intubated and mechanically ventilated.
ECG was monitored throughout the study. […] Body temperature was maintained at 37° C.
Arterial blood gas samples from pigs infused with Compound 1 were taken and analyzed for blood gas and serum chemistry values; mean values are reported in Table 4.

ferrets = experiment: Anti-emetic activity in ferrets (morphine sulfate induced emesis); details: 6 ferrets
Protocol: Male descented ferrets weighing 1.0-1.5 kg with vascular access ports in the jugular vein were housed on a 12/12-hour light/dark cycle under controlled temperature, with food and water provided ad libitum. On each study day, food was presented to ferrets one hour prior to dosing. Immediately prior to dosing, food and water were removed. A 1% Compound 1 formulation, prepared as described in Example 5 and formulated in accordance with Example 4, or […] was administered by IV infusion to the ferrets; see Wynn R L et al, 1993, Eur J Pharmacol 241, 42 re […] administration in ferrets. After administration of Compound 1 or […], animals were placed in clean, transparent cages (with lids) and left unrestrained for a 45-min observation period by an observer blinded to the specific treatment administered.
Episodes of retching and/or vomiting were considered separate episodes when the interval between retches and/or vomits exceeded 5 sec.
After termination of the infusion, 0.5 mg/kg morphine sulfate was administered subcutaneously and the ferrets were monitored for 45 min as described above. Six additional ferrets were administered subcutaneously 0.5 mg/kg morphine sulfate only.

Beagle dogs [8] = test system: Beagle dogs
[9] = Anesthetic effects in rats, bolus IV, Loss of Righting Reflex (LORR); type: in vivo, rat; details: male, Sprague-Dawley, rat, in vivo; bolus IV, rats; read-out: MTD (maximum tolerated dose)
Protocol: as §1, §2

male Sprague-Dawley rats [10] = experiment: as above; type: in vivo, rat; details: 49 mg/kg bolus IV
[11] = 15 min IV infusion at 1 mg/kg/min, then 0.5 mg/kg morphine sulfate sc, 45 min
[12] = morphine sulfate 0.5 mg/kg subcutaneously alone, 45 min observation

Row | SMILES | HD50 (dose required to cause 50% of the rats to lose righting reflex) (male Sprague-Dawley rats [4]; bolus IV, rats) [mg/kg] | HD7min (dose required to produce 7 minutes of anesthesia) (male Sprague-Dawley rats [4]; bolus IV, rats) [mg/kg] | Sleep Time (duration of anesthesia) (rats; rats) [min] | MAP % change from baseline (Beagle dogs [5]; 10 mg/kg bolus IV) | MAP % change from baseline (Beagle dogs [5]; 15 mg/kg bolus IV) | MAP % change from baseline (Beagle dogs [5]; 30 mg/kg bolus IV) | duration of anesthesia (sleep time) (Beagle dogs [8]; 5 mg/kg bolus IV, dogs) [min] | duration of anesthesia (sleep time) (Beagle dogs [8]; 10 mg/kg bolus IV, dogs) [min] | duration of anesthesia (sleep time) (Beagle dogs [8]; 15 mg/kg bolus IV, dogs) [min] | duration of anesthesia (sleep time) (Beagle dogs [8]; 30 mg/kg bolus IV, dogs) [min] | also measured
1 | CC(C)c1cccc(C(C)C)c1O [Propofol, 2,6-diisopropylphenol, reference compound] | 3.8 | 7.0 | 7.1 | −22% | −32% | −66%* |  |  |  |  | inhibition at 10 µM [1]: > 20%; effects at alpha2, NMDA, PCP, benzodiazepine or opioid receptors [2]: No significant effects; aqueous phase concentration [3]: 6.28 ± 0.41 µg/mL; LORR produced (male Sprague-Dawley rats [4]; 3.5 mg/kg bolus IV, 6 rats): no LORR in 4 of 6 rats; Cardiac output versus baseline (mongrel dogs): significantly reduced from baseline; AUC (in vivo): 1810 ng·h/mL; IV infusion time producing maximal suppression of BIS (pigs [6]): 9.4 ± 1.9 min; lowest HR measured (pigs [7]): 88±6 bpm; retches (ferrets; [11]): 47; vomits (ferrets; [11]): 3; dogs reaching the MTD (MAP reduced by 50% or to less than 50 mmHg) (Beagle dogs [8]; dog, in vivo, iv): Two of 3 dogs
2 | CC[C@H](C)c1cccc([C@@H](C)CC)c1O (single isomer, unassigned) [(S,S)] | 4 | 5.2 | 6.3 | +7% | +5% | 0% | 8 | 24 | 50 | 50 | MTD [9]: 42 mg/kg; TI (therapeutic index, ratio of MTD to HD7 min) (male Sprague-Dawley rats [4]; bolus IV, rats): 8.1; deaths (male Sprague-Dawley rats [10]): One of six rats died
3 | CC[C@@H](C)c1cccc([C@@H](C)CC)c1O [(meso), (meso)-2,6-di-sec-butylphenol] |  |  | 12.7 | +5% | +15% | −16% | 25 | 36 | 55 | 58 | deaths (rats; 21 mg/kg, rats): One of 6 rats; duration of anesthesia (rats; 21 mg/kg, remaining 5 rats): 34 min; quality of anesthesia (smoothness of induction, muscle tone, involuntary motion) (Beagle dogs [8]; bolus IV, dogs): inferior
4 | CN1CC[C@]23c4c5ccc(O)c4O[C@H]2[C@@H](O)C=C[C@H]3[C@H]1C5.O=S(=O)(O)O [Morphine sulfate] |  |  |  |  |  |  |  |  |  |  | episodes of vomiting (ferrets; [12]): 15; retches (ferrets; [12]): 157
